According to PMC6801448, “The Antioxidant and Antiproliferative Activities of 1,2,3-Triazolyl-L-Ascorbic Acid Derivatives” (International Journal of Molecular Sciences, 2019):
Like-named read-outs stand apart in the source and are kept apart here.

Key:
[1] = test system: SW620 (colorectal adenocarcinoma, metastatic); experiment: MTT proliferation assay, SW620; format: cell-based; details: Homo sapiens, SW-620, 72 h
Method: (§1) Human tumor cell lines HeLa (cervical carcinoma), SW620 (colorectal adenocarcinoma, metastatic), A549 (lung adenocarcinoma), MCF−7 (breast adenocarcinoma), CFPAC-1 (pancreatic adenocarcinoma, metastatic), HCT-116 (colorectal carcinoma), and HepG2 (hepatocellular carcinoma), and normal cell lines HFF-1 (foreskin fibroblasts) and WI-38 (immortalized human lung fibroblast), were from the US American Type Culture Collection (ATCC, Manassas, VA, USA). Cells were cultured in a liquid nutrient medium (Dulbecco’s Modified Eagle Medium, LONZA, Basel, Switzerland) supplemented with 10% fetal bovine serum (FBS, Gibco, Grand Island, NY, USA), 2 mM L-glutamine (GIBCO, Grand Island, NY, USA), 100 μg/mL penicillin, and 100 μg/mL streptomycin (LONZA, Basel, Switzerland), in an incubator (NÜVE, Ankara, Turkey), at a humid atmosphere with 5% CO2 at 37 °C. Trypsin/EDTA Solution (Lonza, Basel, Switzerland), was used for cell passaging and cell detachment.
(§2) Adherent cells were seeded on 96 well microtiter plates (Falcon, New York, NY, USA) at a seeding density of 5000 cells per well, added in 150 μL of cell suspension in a nutrient medium. 24 h after seeding, cells were treated with compound 4b–4g, 4i, 4k–4t, 4v, 7c–7g, and 7i–7q dilutions in the range of 0.01 μM to 100 μM. L-ascoric acid (Sigma Aldrich, Darmstadt, Germany) and Carboxyamidotriazole (Sigma Aldrich, Darmstadt, Germany) were used as control compounds. Incubation of the cells with the compounds were performed for 72 h in a 5% CO2, in humid atmosphere at 37 °C. After incubation, nutrient medium was removed and 40 μL of the MTT reagent ([…]-2,5-diphenyltetrazole bromide (Invitrogen, Carlsbad, CA, USA) was added to each well. 3 h after incubation, 160 μL of DMSO (VWR CHEMICALS, Radnor, PA, USA) were added to each well to dissolve the crystals of purple formazane. The absorbance was measured at 570 nm (TECAN SUNRISE Microtiter plate reader (Männedorf, Switzerland). The experimentally measured optical densities (OD) were converted to the PG (percentage of growth), using the formulas according to the protocol assumed by NIH (National Institute of Health). The IC50 values (concentration causing 50% cell growth inhibition) for each compound were calculated by regression analysis of the survival count curve of the concentrations of the tested compounds. The results were processed in Excel 2010 (Microsoft, Redmond, WA, USA).

[2] = test system: MCF-7 (breast adenocarcinoma); experiment: MTT proliferation assay, MCF-7; format: cell-based, Human; details: Homo sapiens, MCF7; 72 h, MTT
Method: as §1, §2

[3] = DPPH radical scavenging assay; format: biochemical
Method: Likewise, L-ASA, the 1,2,3-triazole L-ASA derivatives with free C2-OH and C3-OH groups were expected to be potent antioxidants. Therefore, they were tested as radical scavengers by reaction with the stable free radical 2,2-diphenyl-1-picrylhydrazyl (DPPH^•).
Antioxidant capacity of selected compounds was assessed by 2,2-diphenyl-1-picrylhydrazyl assay (DPPH, Sigma Aldrich, Darmstadt, Germany), in which the antioxidant activity of compounds is measured by the reaction between a stable radical of 1,1-diphenyl-2-picylhydrazil (DPPH^•) and a selected compound according to the manufacturer recommendations. Briefly, compounds 4b–4e, 4f–4h, 4k, 4l, 4o, 4p–4s, 4t, 4v, 7c–7f, 7i–7n, 7q, 7p, and 7o were tested at 0.06, 0.12, 0.18, 0.23, 0.25, and 0.28 mM. L-ascorbic acid was used as the reference compound. Absorbance was measured 5 and 10 min after incubation of the compounds with the DPPH reagent. The reduction of DPPH with selected compounds was monitored by measuring the absorbance at a wavelength of 517 nm on the monochromator (Infinite M200 PRO, TECAN, Männedorf, Switzerland).

[4] = test system: CFPAC-1 (ductal pancreatic adenocarcinoma); experiment: MTT proliferation assay, CFPAC-1; format: cell-based; details: Homo sapiens, 72 h
Method: as §1, §2

[5] = test system: HeLa (cervical carcinoma); experiment: MTT proliferation assay, HeLa; format: cell-based; details: Homo sapiens, 72 h
Method: as §1, §2

[6] = test system: A549 (lung adenocarcinoma); experiment: MTT proliferation assay, A549; format: cell-based; details: Homo sapiens, 72 h
Method: as §1, §2

[7] = test system: HCT-116 (colorectal carcinoma); experiment: MTT proliferation assay, HCT-116; format: cell-based; details: Homo sapiens, 72 h
Method: as §1, §2

[8] = test system: HepG2 (hepatocellular carcinoma); experiment: MTT proliferation assay, HepG2; format: cell-based; details: Homo sapiens, 72 h
Method: as §1, §2

[9] = test system: HFF-1 (foreskin fibroblasts); experiment: MTT proliferation assay, HFF-1; format: cell-based; details: Homo sapiens, 72 h, normal foreskin fibroblasts
Method: as §1, §2

[10] = test system: WI-38 (lung fibroblasts); experiment: MTT proliferation assay, WI-38; format: cell-based; details: Homo sapiens, 72 h, normal lung fibroblasts
Method: as §1, §2

[11] = 5 min treatment, read-out: IC50 of DPPH• inhibition, Treatm. 5 min
[12] = 10 min treatment, read-out: IC50 of DPPH• inhibition, Treatm. 10 min

IC50 [1] | IC50 [2] | IC50 [3, 11] | IC50 [3, 12] | IC50 [4] | IC50 [5] | melting point | IC50 [6] | IC50 [7] | IC50 [8] | SMILES | IC50 [9] | IC50 [10]
> 100 µM | > 100 µM | 250 µM | 270 ± 20 µM | > 100 µM | > 100 µM | 125 to 127 °C | > 100 µM | > 100 µM | > 100 µM | Cc1ccc(S(=O)(=O)NCc2cn(C[C@H](O)[C@H]3OC(=O)C(O)=C3O)nn2)cc1 [Compound 4r] | > 100 µM | > 100 µM
> 100 µM | > 100 µM | 270 ± 20 µM | 250 µM | > 100 µM | > 100 µM | 132 to 134 °C | > 100 µM | > 100 µM | > 100 µM | O=C1O[C@H]([C@@H](O)Cn2cc(CNS(=O)(=O)c3ccc(Cl)cc3)nn2)C(O)=C1O [Compound 4s] | 0.4 µM | > 100 µM
> 100 µM | 99.6 µM | 150 ± 60 µM | 150 ± 60 µM | > 100 µM | 48 µM | 86 to 88 °C | > 100 µM | > 100 µM | > 100 µM | O=C1O[C@H]([C@@H](O)Cn2cc(CCCCl)nn2)C(O)=C1O [Compound 4p, 6-[4-(3-chloropropyl)-1,2,3-triazol-1-yl]-6-deoxy-L-ascorbic acid] | 6.05 µM | 52.6 µM
> 100 µM | > 100 µM | 260 ± 20 µM | 250 µM | > 100 µM | > 100 µM | ≥ 250 °C | > 100 µM | > 100 µM | > 100 µM | O=C1O[C@H]([C@@H](O)Cn2cc(-c3cc(C(F)(F)F)cc(C(F)(F)F)c3)nn2)C(O)=C1O [Compound 4c, 6-deoxy-6-[4-(3,5-bis(trifluoromethyl)phenyl)-1,2,3-triazol-1-yl]-L-ascorbic acid] | > 100 µM | > 100 µM
> 100 µM | > 100 µM | 240 ± 28 µM | 240 ± 40 µM | > 100 µM | 93 µM | ≥ 250 °C | > 100 µM | > 100 µM | > 100 µM | CC(C)(C)c1cn(C[C@H](O)[C@H]2OC(=O)C(O)=C2O)nn1 [Compound 4o, 6-[4-(tert-butyl)-1,2,3-triazol-1-yl]-6-deoxy-L-ascorbic acid] | < 0.01 µM | 95 µM
> 100 µM | > 100 µM | 240 ± 20 µM | 230 µM | > 100 µM | > 100 µM | 184 to 186 °C | > 100 µM | 63.3 µM | > 100 µM | O=C1O[C@H]([C@@H](O)Cn2cc(CCO)nn2)C(O)=C1O [Compound 4q, 6-deoxy-6-(4-(2-hydroxyethyl)-1,2,3-triazol-1-yl)-L-ascorbic acid] | > 100 µM | > 100 µM
> 100 µM | > 100 µM | 150 ± 60 µM | 100 ± 30 µM | > 100 µM | > 100 µM | 140 to 142 °C | > 100 µM | > 100 µM | > 100 µM | CCCCCCCCCCc1cn(C[C@H](O)[C@H]2OC(=O)C(O)=C2O)nn1 [Compound 4n, 6-(4-decyl-1,2,3-triazol-1-yl)-6-deoxy-L-ascorbic acid] | 0.06 µM | > 100 µM
> 100 µM | > 100 µM | 220 ± 80 µM | 120 ± 20 µM | > 100 µM | > 100 µM | 198 to 200 °C | > 100 µM | > 100 µM | > 100 µM | O=C1O[C@H]([C@@H](O)Cn2cc(CNS(=O)(=O)c3ccc(F)cc3Cl)nn2)C(O)=C1O [Compound 4t] | > 100 µM | > 100 µM
> 100 µM | > 100 µM | > 280 µM | > 280 µM | > 100 µM | > 100 µM | 98 to 99 °C | > 100 µM | > 100 µM | > 100 µM | CCCCc1cn(C[C@H](O)[C@H]2OC(=O)C(O)=C2O)nn1 [Compound 4m, 6-(4-butyl-1,2,3-triazol-1-yl)-6-deoxy-L-ascorbic acid] | 0.12 µM | > 100 µM
> 100 µM | > 100 µM | 170 ± 160 µM | 160 ± 140 µM | > 100 µM | > 100 µM | 119 to 121 °C | > 100 µM | > 100 µM | > 100 µM | O=C1O[C@H]([C@@H](O)Cn2cc(C3CC3)nn2)C(O)=C1O [Compound 4l, 6-[4-cyclopropyl-1,2,3-triazol-1-yl]-6-deoxy-L-ascorbic acid] | 4.61 µM | > 100 µM
> 100 µM | > 100 µM | > 280 µM | > 280 µM | > 100 µM | > 100 µM | 129 to 131 °C | > 100 µM | > 100 µM | > 100 µM | O=C1O[C@H]([C@@H](O)Cn2cc(-c3ccccc3O)nn2)C(O)=C1O [Compound 4i, 6-deoxy-6-[2-hydroxyphenyl-1,2,3-triazol-1-yl]-L-ascorbic acid] | 0.92 µM | > 100 µM
> 100 µM | 26.9 µM | 210 ± 70 µM | 130 ± 40 µM | > 100 µM | > 100 µM | 237 to 239 °C | > 100 µM | > 100 µM | > 100 µM | CCCCCc1ccc(-c2cn(C[C@H](O)[C@H]3OC(=O)C(O)=C3O)nn2)cc1 [Compound 4k, 6-deoxy-6-[4-(4-pentylphenyl)-1,2,3-triazol-1-yl]-L-ascorbic acid] | 0.21 µM | > 100 µM
> 100 µM | > 100 µM | 100 ± 50 µM | 100 ± 40 µM | > 100 µM | > 100 µM | 167 to 169 °C | > 100 µM | > 100 µM | > 100 µM | O=C1O/C(=C\Cn2cc(-c3ccccc3O)nn2)C(O)=C1O [Compound 7i, 4,5-didehydro-5,6-dideoxy-6-[4-(2-hydroxyphenyl)-1,2,3-triazole-1-yl]-L-ascorbic acid] | – | > 100 µM
